Data set [1] deals with serum IL-4 and IFN-γ. Nature of the data set: Serum IL-4 and IFN-γ by ELISA after i.p. glycolipid injection into naïve B6 mice. Conditions: compared to OCH. Type of data set: in vivo, mouse. The protocol:
FIG. 10: Effect of glycolipid agonists on cytokine expression in naïve B6 mice, and on iNKT cells in septic B6 mice. (a) Naïve B6 mice were injected i.p. with 4 μg OCH or KRN7000 or C20:2, and bled at 2, 12, and 24 hours post-injection. Serum samples were assayed for IL-4 and IFN-γ by enzyme-linked immunosorbent assay (ELISA). […] Vehicle-treated mice had cytokine levels below limits of detection. (b) B6 mice were given an intraperitoneal injection of fecal slurry (500 μL of a 90 mg/mL solution) to induce IAS and concomitantly treated with 4 μg of vehicle, OCH, or KRN7000. After 24 hours, mice were sacrificed, and cell suspensions from the liver and spleen were stained for the flow cytometric detection of CD1d tetramer+ TCRβ+iNKT cells.
(§1) Lyophilized OCH was generously provided by the National Institutes of Health (NIH) Tetramer Core Facility (Emory University, Atlanta, Ga.). Each vial containing 0.2 mg of OCH was solubilized in a vehicle solution containing 1 mL of sterile distilled water, 0.5% Tween 20, 56 mg of sucrose and 7.5 mg of histidine, and stored as aliquots at 4° C. until use. KRN7000 (α-GalCer, C26:0/C18:0) was purchased from Funakoshi Co. Ltd. (Tokyo, Japan), solubilized at 1 mg/ml in dimethylsulphoxide (DMSO), and stored as aliquots at −20° C. until use (29); the control vehicle was 2% DMSO in phosphate-buffered saline (PBS). C20:2 was synthesized and used as previously published (30, 31). For in vivo experiments, mice were injected intraperitoneally (i.p.) with a single dose of glycolipid (4 μg/dose) (30) within twenty minutes after induction of IAS.
Cytokine concentrations were determined by commercially available specific ELISA assays for IL-4 and IFN-γ (Ready-Set-Go kits, eBioscience). ODs were measured on a Benchmark Microplate Reader (Bio-Rad) at a wavelength of 450 nm for both cytokines.
(ELISA stands for enzyme-linked immunosorbent assay.)

The conditions of data set [2]: C20:2 compared to OCH; cited from earlier work.
Data set [3] has as its system B6 mice with intra-abdominal sepsis (IAS). Nature of the data set: Murine intra-abdominal sepsis (IAS) model: survival and murine sepsis score (MSS). The class given is in vivo, mouse. Particulars: septic B6 mice. The protocol:
Stool from the cecum of euthanized naïve B6 mice was expressed through an enterotomy, homogenized, and suspended in 0.9% normal saline (NS) to produce a fecal slurry at a final concentration of 90 mg/mL, for use in experiments on the same day. Mice were injected intraperitoneally with 500 μL fecal slurry or 0.9% normal saline (sham group). The mice were monitored and scored by two independent investigators—one of whom was blinded to the treatment—every 2-3 hours for the first 12 hours, and then every 1-2 hours thereafter. A murine sepsis score (MSS) was assigned to each mouse based on activity, eye movement, response to exogenous stimuli, breathing rate and pattern, and degree of piloerection (Shrum et al. BMC Research Notes 2014, 7:233). The MSS is a reliable and robust scoring system that has excellent inter-rater reliability (intra-class coefficient=0.96), high internal consistency (Cronbach α=0.92), and correlates with levels of certain pro-inflammatory cytokines such as IFN-γ and IL-1β during the experimental timeline (Shrum et al. BMC Research Notes 2014, 7:233). Mice were euthanized at 24 hours, or earlier if they were deemed to be in significant distress based on our scoring model. Euthanasia was carried out as described above. At the time of sacrifice, intra-cardiac blood was drawn into 1.5 mL micro-centrifuge tubes (BD Biosciences) and centrifuged for serum at 1000×g for 30 minutes at 4° C.
as §1

The test system of data set [4] is invariant TCR. Conditions: C20:2 compared to OCH; cited from earlier work.
In data set [5] the test system is splenocyte apoptosis. Briefly: Histology (H&E) and TUNEL staining of spleen, liver and omentum of septic B6 mice. Type of data set: in vivo, mouse. Conditions: 24 hours. The text has this:
FIG. 6: Histopathology of septic B6 mice treated with glycolipid agonists of iNKT cells. […] Lymphocyte migration to the omentum is also ameliorated in OCH-treated mice compared to vehicle- and KRN7000-treated mice. There were no histopathological differences in the liver. Images are representative of 4 animals per treatment group (size bar, 50 μm). (b) Histopathological scoring of the degree of apoptosis observed within the spleens of sham and septic B6 mice treated with vehicle, KRN7000, or OCH (n=4 animals per treatment group). Apoptosis was defined histologically by the presence of cell clusters with nuclear shrinkage (karyorrhexis), dark eosinophilic cytoplasm, intact plasma membrane, and relative paucity of surrounding inflammatory cells within the splenic follicles on H&E staining. Scores assigned to each animal by a blinded independent pathologist were as follows: 0 for complete absence of apoptosis; 1 for mild presence of apoptosis (0-15% per follicle); 2 for moderate apoptosis (16-30% per follicle); and 3 for severe apoptosis (31-45% per follicle). ***p<0.0001 by two-tailed Mann Whitney U test.
Liver, spleen, and omentum from sham B6 mice, and vehicle-, OCH-, and KRN7000-treated septic B6 mice were fixed in 10% neutral buffered formalin, embedded in paraffin, sectioned, and stained with H&E or subjected to TUNEL staining using a commercially available kit (Calbiochem). At least four stained sections per spleen from four animals per treatment group were examined and scored for apoptosis by a board-certified veterinary pathologist (Welch) who was blinded to the study design. Apoptosis was defined histologically by the presence of cell clusters with nuclear shrinkage (karyorrhexis), dark eosinophilic cytoplasm, intact plasma membrane, and relative paucity of surrounding inflammatory cells within the splenic follicles on H&E staining (34). Scores assigned to each animal were as follows: 0 for complete absence of apoptosis; 1 for mild presence of apoptosis (0-15% per follicle); 2 for moderate apoptosis (16-30% per follicle); and 3 for severe apoptosis (31-45% per follicle). Photomicrographs were taken using a Nikon DS-Fi1 digital camera using NIS-elements software.

For `CCCCC/C=C\C/C=C\CCCCCCCCCC(=O)N[C@@H](CO[C@H]1O[C@H](CO)[C@H](O)[C@H](O)[C@H]1O)[C@H](O)[C@H](O)CCCCCCCCCCCCCC` [C20:2], in data set [1], the “Th2 response at 24 hours” value is listed as “more pronounced”. For the same molecule, the half-life result in data set [2] is recorded as “relatively short”. The respiratory status entry in data set [3] (observed up to 24 hours) was “improved respiratory status”. Also, the “course of MSS over time” value in data set [3] (up to 24 hours) is recorded as “continued to rise”. For the same molecule, the “MSS between 20 and 24 hours” value in data set [3] (compared to vehicle-treated mice) is “significant reduction”. Besides, the “capacity to bind and activate iNKT cells” value in data set [4] was “significantly stronger”. Also, in data set [5], the “apoptosis in histology compared to KRN7000-treated mice” value is on record as “decrease” and the “degree of apoptosis compared to OCH-treated mice” value is reported as “higher”.
